Data from patent US11007269B2, “P53 degradation inducing molecule and pharmaceutical composition” (Tokyo University of Science Foundation, priority 2016, dated 2021).
Non-standard residues stand in square brackets, D forms with d. Residues, ends and D or L forms follow the SMILES beside them. Nle = CCCC[C@H](N)C(=O)O

What was measured:
[1] = tested on: ecDHFR protein (fusion protein of an ecDHFR protein and GFP through a HA tag); type: cell-based, human; conditions: HeLa cells, 24 hours after addition, vs DMSO control
[2] = molecular target: T1, catalytic subunit β5 of the proteasome (chymotrypsin-like activity) (Homo sapiens, UniProt P28074); experiment: 20S Proteasome StressXpress Assay Kit, AMC substrate, β5; type: biochemical
T1 construct: purchased Bioscience
Procedure: (§1) In Reference Example 2, the proteasome inhibitory activity of TMP-CANDDY_DMT and the affinity of TMP-CANDDY_DMT with a proteasome were evaluated. As a positive control, MG-132 as a proteasome inhibitor was used.
(§2) For evaluation, 20S Proteasome StressXpress™ Assay Kit Gold (Bioscience) was used. AMC was measured by using Multi-Detection Microplate Reader (Synergy HT, BIO-TEK). The AMC was produced by cleaving the C-terminus of an AMC-binding proteasome fluorescence substrate specific to β subunits of a 20S proteasome, including β5 (chymotrypsin-like activity), β2 (trypsin-like activity), and β1 (caspase-like activity). The measuring wavelengths were 360 nm for excitation light (Ex.), and 460 nm for fluorescence (Em.).
(§3) In Reference Example 6, as in Reference Example 2, a proteasome inhibitory activity of TMP-CANDDY_ALLN and an affinity of TMP-CANDDY_ALLN with a proteasome were evaluated.

20S proteasome = molecular target: T2, 20S proteasome (Homo sapiens, UniProt P28072+P28074+Q99436); experiment: Affinity with a proteasome, evaluated from the 20S proteasome activity assay; type: biochemical; conditions: concluded from the concentration dependent inhibitory activity
T2 construct: purchased Bioscience
Procedure: as §1, §2, §3

[3] = molecular target: T3, catalytic subunit β2 of the proteasome (trypsin-like activity) (Homo sapiens, UniProt Q99436); experiment: 20S Proteasome StressXpress Assay Kit, AMC substrate, β2; type: biochemical
T3 construct: purchased Bioscience
Procedure: as §1, §2, §3

[4] = molecular target: T4, catalytic subunit β1 of a proteasome (caspase-like activity) (Homo sapiens, UniProt P28072); experiment: 20S Proteasome StressXpress Assay Kit, AMC substrate, β1; type: biochemical
T4 construct: purchased Bioscience
Procedure: as §1, §2, §3

[5] = tested on: ecDHFR protein (fusion protein of an ecDHFR protein and GFP through a HA tag); experiment: Western blot of degradation of forcibly expressed ecDHFR protein in HeLa cells; type: cell-based, human
[6] = tested on: senescence-associated acidic β-galactosidase (SA-β-gal) inducing TIG3 cells; experiment: FACS analysis of SA-β-gal in doxorubicin senescence-induced TIG3 cells (anti-aging action); type: cell-based, human; conditions: doxorubicin 150 nM alone vs no doxorubicin
Procedure: In Example 5, an anti-aging action in a senescence-associated acidic β-galactosidase (SA-β-gal) inducing TIG3 cells (human embryonic fibroblast) in which TIBC-CANDDY_MLN had been added was evaluated by FACS analysis.
TIG3 cells as normal cells were seeded in a 24-well plate at a cell density of 8×10^4 cells/well, and then cultured under conditions of 37° C. and 5 vol % CO2 for 16 hours.
After 16 hours from cell seeding, doxorubicin was added to each well at 150 nM/well to induce cellular senescence. As a medium, a serum-free medium (37° C.) in which 1 mass % L-glutamine solution (Sigma-Aldrich) was added to D-MEM (high D-glucose, phenol red, sodium pyruvate (Wako Pure Chemical Industries, Ltd.)) was used. It is noted that the L-glutamine solution was added immediately before use. After the addition of doxorubicin, culture was performed under conditions of 37° C. and 5 vol % CO2 for 24 hours.
After 24 hours from induction of senescence, TIBC-CANDDY_MLN was added to TIG3 cells as follows. As a medium, a serum-free medium (37° C.) in which 1 mass % L-glutamine solution (Sigma-Aldrich) was added to D-MEM (high D-glucose, phenol red, sodium pyruvate (Wako Pure Chemical Industries, Ltd.)) was used. It is noted that the L-glutamine solution was added immediately before use. A DMSO solution containing TIBC-CANDDY_MLN was mixed with the medium so that the concentration of DMSO was 1 vol %, and added to each well at 500 μL/well, and cultured under conditions of 37° C. and 5 vol % CO2 for 48 hours. As a control, DMSO was used.
For quantification of SA-β-gal as a senescence marker, a commercially available kit (Cellular Senescence Detection Kit-SPiDER-βGal (DOJINDO LABORATORIES)) was used. […]
A BD FACSCanto™ II (BD Biosciences) was used for flow cytometry to detect SA-β-gal labeled with FITC. […] A histogram of the FITC strength was created by an analysis software FlowJo™ (TOMY Digital Biology Co., Ltd.), and the senescence suppressing action by TIBC-CANDDY_MLN was evaluated from a shift in the histogram.

[7] = molecular target: T4, catalytic subunit β1 of a proteasome (caspase-like activity); conditions: reported by Kaiser et al., Chem. Bio. Chem., 2004; cited from earlier work

| SMILES | degradation (knockdown) of the ecDHFR protein (shift of GFP/DsRed graph, FACS) [1] | concentration dependence of inhibitory activity against β5 [2] | proteasome inhibitory activity against β5 compared with the reference proteasome inhibitor [2] | affinity with a proteasome (20S proteasome) | concentration dependence of inhibitory activity against β2 [3] | proteasome inhibitory activity against β2 compared with the reference proteasome inhibitor [3] | concentration dependence of inhibitory activity against β1 [4] | proteasome inhibitory activity against β1 compared with the reference proteasome inhibitor [4] | amount of the ecDHFR protein (Western blot) ([5]; 24 hours after addition, cycloheximide 50 μg/mL added at 12 hours) | degradation of the ecDHFR protein when bortezomib is added as well ([5]; both TMP-CANDDY_DMT and bortezomib added, compared with TMP-CANDDY_DMT alone) | shift to SA-β-gal (senescence marker) positive (FACS histogram) [6] | inhibition of β1 [7] |
| --- | --- | --- | --- | --- | --- | --- | --- | --- | --- | --- | --- | --- |
| CCCC[C@H](NC(=O)[C@H](CC(C)C)NC(=O)[C@H](CC(C)C)NC(C)=O)C(=O)NCCCCCCNC(=O)COc1c(OC)cc(Cc2cnc(N)nc2N)cc1OC [TMP-CANDDY_ALLN] | degradation of the ecDHFR protein was induced | in a concentration dependent manner | the inhibitory activity was weakened | had an affinity with a proteasome | in a concentration dependent manner | the inhibitory activity was weakened | in a concentration dependent manner |  |  |  |  |  |
| COc1nc(NCCCCCCNC(=O)COc2c(OC)cc(Cc3cnc(N)nc3N)cc2OC)nc(OC)n1 [TMP-CANDDY_DMT] | degradation of the ecDHFR protein was induced | increased in a concentration dependent manner | significantly lower proteasome inhibitory activity as compared with MG-132 | moderate affinity | increased in a concentration dependent manner | significantly lower proteasome inhibitory activity as compared with MG-132 | increased in a concentration dependent manner | significantly lower proteasome inhibitory activity as compared with MG-132 | reduced | degradation of the ecDHFR protein was inhibited |  |  |
| COc1cccc2c1C(=O)c1c(O)c3c(c(O)c1C2=O)C[C@@](O)(C(=O)CO)C[C@@H]3O[C@H]1C[C@H](N)[C@H](O)[C@H](C)O1 [doxorubicin, reference compound] |  |  |  |  |  |  |  |  |  |  | a shift to SA-β-gal (senescence marker) positive was observed |  |
| CCCC[C@@H](C=O)NC(=O)[C@H](CC(C)C)NC(=O)[C@H](CC(C)C)NC(C)=O [ALLN, Calpain Inhibitor I] (Ac-Leu-Leu-[Nle]-aldehyde) |  |  |  |  |  |  |  |  |  |  |  | not inhibited |
